Test results from the supplement of paper PMC10307832.

How the values were obtained:
Assay in all cases: relative viability (nuclei count vs DMSO), 5 days (fraction); higher = more cells survive
[1] = compound: CCC1=CN=CN=C1N2CCN(CC2)CC3=NC4=C(N3)C=C(C=C4)C(F)(F)F + CC1(C)CCC(c2ccc(Cl)cc2)=C(CN2CCN(c3ccc(C(=O)NS(=O)(=O)c4ccc(N[C@H](CCN5CCOCC5)CSc5ccccc5)c(S(=O)(=O)C(F)(F)F)c4)cc3)CC2)C1 [Navitoclax] (partner 0.5 µM)
Method in brief: (§1)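 Cells from lung cancer lines were seeded into 1536-well plates and, one day later, dosed by pin tool. Treatments were either a single drug or a fixed dose of an anchor drug with five library-drug doses (not always all listed) in √10 steps. After 5 days, nuclei were stained in a one-step fixation (final 0.05% Triton X-100, 1% formaldehyde, 1 ug/ml Hoechst) and counted on 4× images, and relative viability is the treated-to-vehicle nuclei ratio, as the median of duplicate plates.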

[2] = compound: CCn1c(-c2nonc2N)nc2cnc(Oc3cccc(NC(=O)c4ccc(OCCN5CCOCC5)cc4)c3)cc21 + CC(=O)c1c(C)c2cnc(Nc3ccc(N4CCNCC4)cn3)nc2n(C2CCCC2)c1=O [Palbociclib] (partner 0.5 µM)
Method in brief: as §1

[3] = compound: CCC1=CN=CN=C1N2CCN(CC2)CC3=NC4=C(N3)C=C(C=C4)C(F)(F)F + NC(=O)Nc1cc(-c2cccc(F)c2)sc1C(=O)N[C@H]1CCCNC1 [AZD7762] (partner 0.2 µM)
Method in brief: as §1

Mirin + Palbociclib = compound: N=C1NC(=O)/C(=C/c2ccc(O)cc2)S1 [Mirin] + CC(=O)c1c(C)c2cnc(Nc3ccc(N4CCNCC4)cn3)nc2n(C2CCCC2)c1=O [Palbociclib] (partner 0.5 µM)
Method in brief: as §1

Cell Line | relative viability ([1]; first compound 0.04 µM) | relative viability ([1]; first compound 0.1265 µM) | relative viability ([1]; first compound 0.4 µM) | relative viability ([1]; first compound 1.265 µM) | relative viability ([1]; first compound 4 µM) | relative viability ([2]; first compound 0.04 µM) | relative viability ([2]; first compound 0.1265 µM) | relative viability ([2]; first compound 0.4 µM) | relative viability ([2]; first compound 1.265 µM) | relative viability ([2]; first compound 4 µM) | relative viability ([3]; first compound 0.04 µM) | relative viability ([3]; first compound 0.1265 µM) | relative viability ([3]; first compound 0.4 µM) | relative viability ([3]; first compound 1.265 µM) | relative viability ([3]; first compound 4 µM) | relative viability (Mirin + Palbociclib; first compound 0.25 µM) | relative viability (Mirin + Palbociclib; first compound 0.7906 µM) | relative viability (Mirin + Palbociclib; first compound 2.5 µM) | relative viability (Mirin + Palbociclib; first compound 25 µM) | relative viability (Mirin + Palbociclib; first compound 7.906 µM)
A549 | 1.14 | 1.13 | 1.12 | 1.16 | 0.945 |  |  |  |  |  |  |  |  |  |  |  |  |  |  | 
NCI-H2342 |  |  |  |  |  | 0.467 | 0.52 | 0.554 | 0.52 | 0.553 | 0.441 | 0.389 | 0.467 | 0.397 | 0.419 | 0.482 | 0.537 | 0.459 | 0.51 | 
SW 1573 | 0.95 | 1.09 | 0.709 | 0.801 | 0.891 | 0.454 | 0.355 | 0.349 | 0.206 | 0.211 |  |  |  |  |  | 0.366 | 0.42 | 0.375 | 0.292 | 0.42
NCI-H520 | 1.16 | 1.01 | 0.969 | 0.96 | 1.03 | 0.242 | 0.207 | 0.199 | 0.176 | 0.175 |  |  |  |  |  | 0.214 | 0.267 | 0.245 | 0.138 | 0.188
Calu-6 | 0.818 | 0.779 | 0.721 | 0.713 | 0.717 |  |  |  |  |  |  |  |  |  |  |  |  |  |  | 
SK-LU-1 | 0.78 | 0.762 | 0.929 | 0.697 | 0.868 | 0.434 | 0.368 | 0.337 | 0.275 | 0.295 |  |  |  |  |  | 0.433 | 0.393 | 0.417 | 0.405 | 0.348
LCLC-103H |  |  |  |  |  | 0.478 | 0.464 | 0.485 | 0.429 | 0.518 | 0.776 | 0.774 | 0.794 | 0.684 | 0.865 | 0.421 | 0.518 | 0.515 | 0.451 | 0.458
NCI-H522 |  |  |  |  |  | 1.18 | 1.13 | 0.853 | 0.909 | 0.827 | 0.87 | 0.869 | 0.707 | 0.748 | 0.901 | 1.02 | 0.943 | 1.19 | 0.605 | 0.875
COR-L23 | 1.02 | 0.853 | 1.02 | 0.959 | 0.968 | 0.308 | 0.25 | 0.129 | 0.173 | 0.127 |  |  |  |  |  | 0.369 | 0.299 | 0.245 | 0.341 | 0.268
NCI-H650 |  |  |  |  |  | 0.349 | 0.297 | 0.255 | 0.201 | 0.184 | 0.844 | 0.909 | 1.01 | 1.29 | 0.946 | 0.306 | 0.399 | 0.333 | 0.38 | 0.265
NCI-H1299 | 1.09 | 1.03 | 1.03 | 1.05 | 1.04 |  |  |  |  |  |  |  |  |  |  |  |  |  |  | 
NCI-H661 |  |  |  |  |  | 0.363 | 0.395 | 0.366 | 0.365 | 0.303 |  |  |  |  |  | 0.416 | 0.426 | 0.406 | 0.401 | 0.369
NCI-H358 |  |  |  |  |  | 0.162 | 0.167 | 0.134 | 0.145 | 0.135 | 0.614 | 0.436 | 0.453 | 0.51 | 0.485 | 0.127 | 0.145 | 0.148 | 0.199 | 0.139
SK-MES-1 | 1.15 | 1.22 | 1.07 | 1.2 | 1.31 | 0.353 | 0.301 | 0.284 | 0.303 | 0.309 |  |  |  |  |  | 0.305 | 0.338 | 0.303 | 0.451 | 0.3
NCI-H1648 |  |  |  |  |  | 0.277 | 0.245 | 0.231 | 0.474 | 0.388 | 0.666 |  |  | 0.655 | 0.683 | 0.328 |  | 0.304 | 0.224 | 0.265
NCI-H2023 | 0.987 | 0.941 | 0.962 | 1.03 | 1.12 | 0.415 | 0.392 | 0.337 | 0.215 | 0.202 |  |  |  |  |  | 0.386 | 0.368 | 0.409 | 0.315 | 0.349
EBC-1 | 0.422 | 0.49 | 0.396 | 0.415 | 0.434 |  |  |  |  |  |  |  |  |  |  |  |  |  |  | 
NCI-H2009 | 1.19 | 1.16 | 1.09 | 1.1 | 1.09 | 0.175 | 0.196 | 0.141 | 0.112 | 0.19 |  |  |  |  |  | 0.221 | 0.262 | 0.162 | 0.238 | 0.202
IA-LM | 0.733 | 0.806 | 0.646 | 0.654 | 0.695 |  |  |  |  |  |  |  |  |  |  |  |  |  |  | 
ABC-1 |  |  |  |  |  | 0.647 | 0.941 | 0.635 | 0.332 | 0.393 | 0.766 | 0.906 | 0.702 | 0.956 | 0.869 | 0.548 | 0.693 | 0.573 | 0.482 | 0.728
NCI-H596 | 1.01 | 0.899 | 0.933 | 0.944 | 1 |  |  |  |  |  | 1.21 | 1.07 | 1.07 | 0.992 | 1.08 |  |  |  |  | 
NCI-H1703 | 0.901 | 1.13 | 1.1 | 0.85 | 1.08 |  |  |  |  |  |  | 0.148 | 0.125 |  | 0.126 |  |  |  |  | 
